Test: Jurkat reporter gene cellular assay
Format: cell-based
Conditions: Homo sapiens; Jurkat/NF-κB-luc/PD1 + Raji-PD-L1 coculture, OKT3 1 μg/mL, 6 hrs, activation fold; read-out: Cell Activity EC50
Procedure: The effect of compounds of the examples of the present invention and positive compounds on the interaction between PD-1 and PD-L1 expressed on cell surfaces, and the related influence on T cell functions, were determined by a Jurkat reporter gene cellular assay.
Briefly, the reporter gene plasmid of NF-κB-luc and the plasmid of human PD-1 were transfected into Jurkat cells to establish a stably transfected cell line capable of stably expressing both PD-1 and NF-κB-Luc reporter genes; the expression level of PD-1 on the cell surface was confirmed by flow cytometry; and the expression of the reporter gene was confirmed via the response of the reporter gene stimulated by OKT-3 and Raiji cells.
In addition, the plasmid of human PD-L1 was transfected into Raji cells to obtain a cell line capable of stably expressing PD-L1. Jurkat/NF-κB-luc/PD1 cells and Raji-PD-L1 cells were then cocultured and stimulated with OKT-3. On this basis, the compounds were added, and the enhancement of the signal pathway of T cell activation by the inhibitory effect of the compounds on the interaction between PD-1 and PD-L1 was evaluated by readings of reporter gene responses. The specific experimental process was as follows: • 1. 30 μL of compound or antibody solution was added to each well of a white 96-well plate (corning, 3610) at different diluted concentrations, and 10 μL of OKT3 (Biolegend, 317326) was then added (the final concentration of OKT3: 1 μg/mL); • 2. 20 μL of Raji-PD-L1 cell suspension was added to each well with 5*10^4 cells for each well, and was incubated in an incubator for 20 min; • 3. 20 μL of Jurkat/NF-Kb-luc/PD-1 cell suspension was added to each well with 5*10^4 cells for each well, and well mixed, and 6 hrs later, Bright-glo (Promega, E2620) was applied and plates were read on Envision; • 4. The reading of each well treated with the compound was compared with the reading of each well treated with DMSO to obtain the activation fold of the compound; • 5. EC50 values of compounds and positive compounds of the examples of the present invention were determined by non-linear regression analysis of activation folds at different compound concentrations.

SMILES | EC50 [nM]
Cc1c(/C=C(\F)c2nc3c(n2C)CCNC3)cccc1-c1cccc(NC(=O)c2nc3c(n2C)CCN(CCC24CCC(C(=O)O)(CC2)C4)C3)c1C [Example 2, (Z)-4-(2-(2-((3′-(2-fluoro-2-(1-methyl-4,5,6,7-tetrahydro-1H-imidazo [4,5-c]pyridin-2-yl)vinyl)-2,2′-dimethyl-[1,1′-biphenyl]-3-yl)carbamoyl)-1-methyl-1,4,6,7-tetrahydro-5H-imidazo[4,5-c]pyridin-5-yl)ethyl)bicyclo[2.2.1]heptane-1-carboxylic acid] | 244
Cc1c(/C=C(\F)c2nc3c(n2C)CCN(C[C@@H](C)O)C3)cccc1-c1cccc(NC(=O)c2nc3c(n2C)CCN(CCC24CCC(C(=O)O)(CC2)C4)C3)c1C [Example 3, (R,Z)-4-(2-(2-((3′-(2-fluoro-2-(5-(2-hydroxypropyl)-1-methyl-4,5,6,7-tetrahydro-1H-imidazo[4,5-c]pyridin-2-yl)vinyl)-2,2′-dimethyl-[1,1′-biphenyl]-3-yl)carbamoyl)-1-methyl-1,4,6,7-tetrahydro-5H-imidazo[4,5-c]pyridin-5-yl)ethyl)bicyclo[2.2.1]heptane-1-carboxylic acid] | 95.2
Cc1c(/C=C(\F)c2nc3c(n2C)CCN(CCC24CCC(C(=O)O)(CC2)C4)C3)cccc1-c1cccc(NC(=O)c2nc3c(n2C)CCN(C(C)C)C3)c1C [Example 5, (Z)-4-(2-(2-(1-fluoro-2-(3′-(5-isopropyl-1-methyl-4,5,6,7-tetrahydro-1H-imidazo[4,5-c]pyridine-2-carboxamido)-2,2′-dimethyl-[1,1′-biphenyl]-3-yl)vinyl)-1-methyl-1,4,6,7-tetrahydro-5H-imidazo[4,5-c]pyridin-5-yl)ethyl)bicyclo[2.2.1]heptane-1-carboxylic acid] | 719
COc1cc(/C(F)=C/c2cccc(-c3cccc(NC(=O)c4nc5c(n4C)CCN(CCC46CCC(C(=O)O)(CC4)C6)C5)c3Cl)c2Cl)ncc1CNCCCO [Example 43, (Z)-4-(2-(2-((2,2′-dichloro-3′-(2-fluoro-2-(5-(((3-hydroxypropyl)amino)methyl)-4-methoxypyridin-2-yl)vinyl)-[1,1′-biphenyl]-3-yl)carbamoyl)-1-methyl-1,4,6,7-tetrahydro-5H-imidazo[4,5-c]pyridin-5-yl)ethyl)bicyclo[2.2.1]heptane-1-carboxylic acid] | 137
COc1cc(/C(F)=C/c2cccc(-c3cccc(NC(=O)c4nc5c(n4C)CCN(CCC46CCC(C(=O)O)(CC4)C6)C5)c3Cl)c2Cl)ncc1CN[C@@H](C)CO [Example 44, (S,Z)-4-(2-(2-((2,2′-dichloro-3′-(2-fluoro-2-(5-(((1-hydroxypropan-2-yl)amino)methyl)-4-methoxypyridin-2-yl)vinyl)-[1,1′-biphenyl]-3-yl)carbamoyl)-1-methyl-1,4,6,7-tetrahydro-5H-imidazo[4,5-c]pyridin-5-yl)ethyl)bicyclo[2.2.1]heptane-1-carboxylic acid] | 105
COc1cc(/C(F)=C/c2cccc(-c3cccc(NC(=O)c4nc5c(n4C)CCN(CCC46CCC(C(=O)O)(CC4)C6)C5)c3Cl)c2Cl)ncc1CNCC(C)(C)O [Example 46, (Z)-4-(2-(2-((2,2′-dichloro-3′-(2-fluoro-2-(5-(((2-hydroxy-2-methylpropyl)amino)methyl)-4-methoxypyridin-2-yl)vinyl)-[1,1′-biphenyl]-3-yl)carbamoyl)-1-methyl-1,4,6,7-tetrahydro-5H-imidazo[4,5-c]pyridin-5-yl)ethyl)bicyclo[2.2.1]heptane-1-carboxylic acid] | 152
COc1cc(/C(F)=C/c2cccc(-c3cccc(NC(=O)c4nc5c(n4C)CCN(CCC46CCC(C(=O)O)(CC4)C6)C5)c3Cl)c2Cl)ncc1CNC1CCCC1 [Example 51, (Z)-4-(2-(2-((2,2′-dichloro-3′-(2-(5-((cyclopentylamino)methyl)-4-methoxypyridin-2-yl)-2-fluorovinyl)-[1,1′-biphenyl]-3-yl)carbamoyl)-1-methyl-1,4,6,7-tetrahydro-5H-imidazo[4,5-c]pyridin-5-yl)ethyl) bicyclor[2.2.1]heptane-1-carboxylic acid] | 90.1

The remaining lines, values ahead:

EC50 [nM] | SMILES
289 | Cc1c(/C=C(\F)c2nc3c(n2C)CCN(C(C)C)C3)cccc1-c1cccc(NC(=O)c2nc3c(n2C)CCN(CCC24CCC(C(=O)O)(CC2)C4)C3)c1Cl [Example 4, (Z)-4-(2-(2-((2-chloro-3′-(2-fluoro-2-(5-isopropyl-1-methyl-4,5,6,7-tetrahydro-1H-imidazo[4,5-c]pyridin-2-yl)vinyl)-2′-methyl-[1,1′-biphenyl]-3-yl)carbamoyl)-1-methyl-1,4,6,7-tetrahydro-5H-imidazo [4,5-c]pyridin-5-yl)ethyl)bicyclo[2.2.1]heptane-1-carboxylic acid]
973 | Cc1c(/C=C(\F)c2nc3c(n2C)CCN(C(C)C)C3)cccc1-c1cccc(NC(=O)c2nc3c(n2C)CCN(CC24CCC(C(=O)O)(CC2)C4)C3)c1C [Example 6, (Z)-4-((2-((3′-(2-fluoro-2-(5-isopropyl-1-methyl-4,5,6,7-tetrahydro-1H-imidazo[4,5-c]pyridin-2-yl)vinyl)-2,2′-dimethyl-[1,1′-biphenyl]-3-yl)carbamoyl)-1-methyl-1,4,6,7-tetrahydro-5H-imidazo[4,5-c]pyridin-5-yl)methyl)bicyclo[2.2.1]heptane-1-carboxylic acid]
249 | Cc1c(/C=C(\F)c2cc(C3CC3)c(CN3CCCC[C@H]3C(=O)O)cn2)cccc1-c1cccc(NC(=O)c2nc3c(n2C)CCN(C(C)C)C3)c1C [Example 18, (S,Z)-1-((4-cyclopropyl-6-(1-fluoro-2-(3′-(5-isopropyl-1-methyl-4,5,6,7-tetrahydro-1H-imidazo[4,5-c]pyridine-2-carboxamido)-2,2′-dimethyl-[1,1′-biphenyl]-3-yl)vinyl)pyridin-3-yl)methyl)piperidine-2-carboxylic acid]
192 | Cc1c(/C=C(\F)c2cc(C3CC3)c(CN3CCCC[C@H]3C(=O)O)cn2)cccc1-c1cccc(NC(=O)c2nc3c(n2C)CCN(C[C@@H](C)O)C3)c1C [Example 19, (S)-1-((4-cyclopropyl-6-((Z)-1-fluoro-2-(3′-(5-((R)-2-hydroxypropyl)-1-methyl-4,5,6,7-tetrahydro-1H-imidazo[4,5-c]pyridine-2-carboxamido)-2,2′-dimethyl-[1,1′-biphenyl]-3-yl)vinyl)pyridin-3-yl)methyl)]
118 | COc1cc(/C(F)=C/c2cccc(-c3cccc(NC(=O)c4nc5c(n4C)CCN(CCC46CCC(C(=O)O)(CC4)C6)C5)c3Cl)c2Cl)ncc1CN1CC(O)C1 [Example 42, (Z)-4-(2-(2-((2,2′-dichloro-3′-(2-fluoro-2-(5-((3-hydroxyazetidin-1-yl)methyl)-4-methoxypyridin-2-yl)vinyl)-[1,1′-biphenyl]-3-yl)carbamoyl)-1-methyl-1,4,6,7-tetrahydro-5H-imidazo[4,5-c]pyridin-5-yl)ethyl)bicyclo[2.2.1]heptane-1-carboxylic acid]
114 | COc1cc(/C(F)=C/c2cccc(-c3cccc(NC(=O)c4nc5c(n4C)CCN(CCC46CCC(C(=O)O)(CC4)C6)C5)c3Cl)c2Cl)ncc1CN[C@H]1C[C@@H](O)C1 [Example 45, 4-(2-(2-((2,2′-dichloro-3′-((Z)-2-fluoro-2-(5-((((1S,3S)-3-hydroxycyclobutyl)amino)methyl)-4-methoxypyridin-2-yl)vinyl)-[1,1′-biphenyl]-3-yl)carbamoyl)-1-methyl-1,4,6,7-tetrahydro-5H-imidazo[4,5-c]pyridin-5-yl)ethyl)bicyclo[2.2.1]heptane-1-carboxylic acid]
147 | COc1cc(/C(F)=C/c2cccc(-c3cccc(NC(=O)c4nc5c(n4C)CCN(CCC46CCC(C(=O)O)(CC4)C6)C5)c3Cl)c2Cl)ncc1CNC1CC1 [Example 47, (Z)-4-(2-(2-((2,2′-dichloro-3′-(2-(5-((cyclopropylamino)methyl)-4-methoxypyridin-2-yl)-2-fluorovinyl)-[1,1′-biphenyl]-3-yl)carbamoyl)-1-methyl-1,4,6,7-tetrahydro-5H-imidazo[4,5-c]pyridin-5-yl)ethyl) bicyclo[2.2. l]heptane-1-carboxylic acid]
80.6 | COc1cc(/C(F)=C/c2cccc(-c3cccc(NC(=O)c4nc5c(n4C)CCN(CCC46CCC(C(=O)O)(CC4)C6)C5)c3Cl)c2Cl)ncc1CNC1CCC1 [Example 48, (Z)-4-(2-(2-((2,2′-dichloro-3′-(2-(5-((cyclobutylamino)methyl)-4-methoxypyridin-2-yl)-2-fluorovinyl)-[1,1′-biphenyl]-3-yl)carbamoyl)-1-methyl-1,4,6,7-tetrahydro-5H-imidazo[4,5-c]pyridin-5-yl)ethyl) bicyclo[2.2.1]heptane-1-carboxylic acid]
